Settings: 323.15 K, Liquid, Vibrating tube method

CCCCCCCC(=O)OCC(COC(=O)CCCCCCC)(COC(=O)CCCCCCC)COC(=O)CCCCCCC [pentaerythritol tetraoctanoate]
Settings	mass density [kg/m3]
16301 kPa	951.3
16330 kPa	951.2
16376 kPa	951.3
16399 kPa	951.4
16422 kPa	951.4
16451 kPa	951.3
16486 kPa	951.5
16514 kPa	951.3
16560 kPa	951.4
16590 kPa	951.6
16619 kPa	951.6
16654 kPa	951.5
16683 kPa	951.5
16714 kPa	951.6
16744 kPa	951.6
16780 kPa	951.7
16810 kPa	951.5
16846 kPa	951.5
16876 kPa	951.7
16907 kPa	951.6
16937 kPa	951.7
16974 kPa	951.6
17005 kPa	951.8
17037 kPa	951.9
17074 kPa	951.8
17106 kPa	951.8
17140 kPa	951.8
17172 kPa	951.9
17203 kPa	951.8
17241 kPa	951.9
17266 kPa	951.9
17311 kPa	951.8
17344 kPa	951.9
17376 kPa	951.9
17414 kPa	952
17448 kPa	951.9
17480 kPa	952
17513 kPa	951.9
17554 kPa	952
17583 kPa	952.2
17622 kPa	952.1
17656 kPa	952.1
17696 kPa	952.2
17730 kPa	952.1
17763 kPa	952.1
17797 kPa	952.3
17838 kPa	952.3
17872 kPa	952.2
17907 kPa	952.2
17948 kPa	952.3
17984 kPa	952.3
18019 kPa	952.4
18055 kPa	952.5
18097 kPa	952.4
18132 kPa	952.3
18168 kPa	952.3
18210 kPa	952.5
18246 kPa	952.5
18282 kPa	952.4
18325 kPa	952.6
18361 kPa	952.5
18398 kPa	952.7
18442 kPa	952.6
18479 kPa	952.7
18516 kPa	952.6
18554 kPa	952.7
18599 kPa	952.7
18637 kPa	952.7
18682 kPa	952.7
18720 kPa	952.8
18758 kPa	952.8
18796 kPa	952.7
18843 kPa	952.9
18882 kPa	952.8
18922 kPa	952.9
18970 kPa	953
19012 kPa	953
19056 kPa	953
19097 kPa	953
19139 kPa	953.1
19166 kPa	952.9
19197 kPa	953.2
19223 kPa	953.1
19250 kPa	953.1
19282 kPa	953
19308 kPa	953.1
19341 kPa	953.3
19368 kPa	953.2
19395 kPa	953.2
19422 kPa	953.3
19456 kPa	953.2
19483 kPa	953.2
19511 kPa	953.2
19543 kPa	953.4
19571 kPa	953.3
19603 kPa	953.2
19632 kPa	953.3
19660 kPa	953.4
19688 kPa	953.4
19722 kPa	953.4
19750 kPa	953.4
19778 kPa	953.4
19812 kPa	953.4
19842 kPa	953.6
19871 kPa	953.4
19905 kPa	953.5
19934 kPa	953.4
19962 kPa	953.5
19997 kPa	953.5
20055 kPa	953.4
20090 kPa	953.6
20119 kPa	953.6
20149 kPa	953.7
20185 kPa	953.7
20216 kPa	953.7
20246 kPa	953.7
20276 kPa	953.7
20307 kPa	953.8
20343 kPa	953.7
20373 kPa	953.7
20404 kPa	953.7
20441 kPa	953.8
20471 kPa	953.8
20502 kPa	953.9
20538 kPa	953.8
20570 kPa	954
20601 kPa	953.9
20634 kPa	954
20667 kPa	954
20705 kPa	954
20736 kPa	954
20767 kPa	954
20805 kPa	954.1
20836 kPa	954.1
20868 kPa	954
20906 kPa	954
20938 kPa	954.2
20970 kPa	954.1
21008 kPa	954.2
21041 kPa	954.1
21074 kPa	954.1
21107 kPa	954.2
21146 kPa	954.2
21178 kPa	954.1
21218 kPa	954.3
21251 kPa	954.4
21284 kPa	954.4
21324 kPa	954.4
21358 kPa	954.4
21391 kPa	954.4
21431 kPa	954.4
21466 kPa	954.4
21500 kPa	954.5
21542 kPa	954.5
21576 kPa	954.5
21604 kPa	954.5
21646 kPa	954.4
21680 kPa	954.7
21722 kPa	954.6
21756 kPa	954.6
21798 kPa	954.5
21832 kPa	954.6
21946 kPa	954.8
21982 kPa	954.6
22025 kPa	954.7
22061 kPa	954.8
22097 kPa	954.7
22134 kPa	954.9
22178 kPa	954.9
22215 kPa	954.9
22259 kPa	954.9
22295 kPa	955
22325 kPa	954.9
22369 kPa	954.9
22414 kPa	955
22451 kPa	955.1
22490 kPa	955.1
22537 kPa	955.1
22576 kPa	955
22616 kPa	955.2
22664 kPa	955.1
22705 kPa	955.3
22743 kPa	955.2
22780 kPa	955.2
22834 kPa	955.5
22861 kPa	955.3
22894 kPa	955.3
22922 kPa	955.3
22950 kPa	955.3
22983 kPa	955.3
23011 kPa	955.4
23038 kPa	955.4
23066 kPa	955.4
23100 kPa	955.3
23127 kPa	955.5
23161 kPa	955.5
23189 kPa	955.5
23217 kPa	955.6
23250 kPa	955.5
23279 kPa	955.6
23308 kPa	955.5
23344 kPa	955.5
23372 kPa	955.7
23400 kPa	955.5
23429 kPa	955.7
23464 kPa	955.7
23492 kPa	955.6
23521 kPa	955.6
23556 kPa	955.6
23585 kPa	955.8
23614 kPa	955.8
23649 kPa	955.8
23679 kPa	955.8
23709 kPa	955.9
23740 kPa	955.8
23769 kPa	955.8
23804 kPa	955.8
23834 kPa	955.8
23869 kPa	955.8
23899 kPa	955.9
23929 kPa	955.9
23965 kPa	955.9
23995 kPa	955.9
24025 kPa	955.9
24062 kPa	956
24092 kPa	955.9
24124 kPa	955.9
24161 kPa	956
24191 kPa	956.2
24223 kPa	956.1
24260 kPa	956.1
24291 kPa	956
24322 kPa	956.2
24354 kPa	956.1
24391 kPa	956.2
24422 kPa	956.1
24460 kPa	956.2
24491 kPa	956.3
24523 kPa	956.3
24562 kPa	956.3
24594 kPa	956.3
24626 kPa	956.3
24658 kPa	956.4
24696 kPa	956.4
24728 kPa	956.4
24766 kPa	956.4
24799 kPa	956.4
24832 kPa	956.5
24871 kPa	956.5
24903 kPa	956.5
24936 kPa	956.6
24976 kPa	956.5
25008 kPa	956.6
25042 kPa	956.6
25075 kPa	956.5
25115 kPa	956.5
25149 kPa	956.7
25188 kPa	956.6
25222 kPa	956.6
25256 kPa	956.7
25290 kPa	956.7
25330 kPa	956.6
25364 kPa	956.7
25398 kPa	956.8
25439 kPa	956.8
25474 kPa	956.8
25509 kPa	956.8
25550 kPa	956.8
25584 kPa	957
25619 kPa	956.9
25654 kPa	957
25695 kPa	957
25729 kPa	956.9
25771 kPa	957
25806 kPa	957.1
25842 kPa	957.1
25878 kPa	957.1
25920 kPa	957.1
25957 kPa	957
25993 kPa	957.2
26028 kPa	957.1
26071 kPa	957.1
26107 kPa	957.1
26150 kPa	957.2
26186 kPa	957.2
26223 kPa	957.3
26259 kPa	957.3
26303 kPa	957.3
26340 kPa	957.2
26384 kPa	957.3
26421 kPa	957.5
26460 kPa	957.3
26498 kPa	957.4
26535 kPa	957.4
26579 kPa	957.5

Source: the NIST ThermoML archive (doi:10.1021/je060271a)
